pIC50: −log10 of the molar value. One block for each compound: values may come before it.
Legend:
[1] = system: Rattus norvegicus; assay: Volume of distribution in male Wistar rat at 100 mg/kg, po; assay type: ADME, organism-based; set-up: dose 100 mg/kg, route oral; conditions: in vivo
[2] = Tmax in male Wistar rat at 100 mg/kg, po; assay type: ADME, organism-based; set-up: dose 100 mg/kg, route oral; conditions: in vivo
[3] = system: Rattus norvegicus; assay: Activity against non high density lipoprotein cholesterol level in obese female Zucker rat serum after 1 week at 100 mg/kg (percent change from pre-treatment); assay type: functional
[4] = Cmax in male Wistar rat at 100 mg/kg, po; assay type: ADME, organism-based; set-up: dose 100 mg/kg, route oral; conditions: in vivo
[5] = system: Rattus norvegicus; assay: Activity against non high density lipoprotein cholesterol level in obese female Zucker rat serum after 2 weeks at 100 mg/kg (percent change from pre-treatment); assay type: functional
[6] = system: Rattus norvegicus; assay: Activity against high density lipoprotein cholesterol level in obese female Zucker rat serum after 1 week at 100 mg/kg (percent change from pre-treatment); assay type: functional
[7] = system: Hepatocyte; assay: Inhibition of lipid synthesis in primary rat hepatocytes by incorporation radiolabeled acetate into cellular lipids; assay type: functional, cell-based, Sprague-Dawley; conditions: Rattus norvegicus, Sprague-Dawley, Hepatocyte; read-out: IC50
[8] = AUC (infinity) in male Wistar rat at 100 mg/kg, po; assay type: ADME, organism-based; set-up: time infinity, dose 100 mg/kg, route oral; conditions: plasma
[9] = Half life in male Wistar rat at 100 mg/kg, po; assay type: ADME, organism-based; set-up: dose 100 mg/kg, route oral; conditions: in vivo
[10] = system: Rattus norvegicus; assay: Activity against triglyceride level in obese female Zucker rat serum after 2 weeks at 100 mg/kg (percent change from pre-treatment); assay type: functional
[11] = system: Rattus norvegicus; assay: Activity against triglyceride level in obese female Zucker rat serum after 1 week at 100 mg/kg (percent change from pre-treatment); assay type: functional
[12] = AUC in male Wistar rat at 100 mg/kg, po; assay type: ADME, organism-based; set-up: dose 100 mg/kg, route oral; conditions: plasma
[13] = Clearance in male Wistar rat at 100 mg/kg, po; assay type: ADME, organism-based; set-up: dose 100 mg/kg, route oral; conditions: in vivo
[14] = system: Rattus norvegicus; assay: Activity against high density lipoprotein cholesterol level in obese female Zucker rat serum after 2 weeks at 100 mg/kg (percent change from pre-treatment); assay type: functional
[15] = system: Rattus norvegicus; assay: Clearance of the metabolite 7-hydroxy-2,2,12,12-tetramethyltridecanedioic acid in male Wistar rat administered with the parent compound at 100 mg/kg, po; assay type: ADME, organism-based; set-up: dose 100 mg/kg, route oral; conditions: in vivo
[16] = system: Rattus norvegicus; assay: Cmax of the metabolite 2,2,12,12-tetramethyl-7-oxotridecanedioic acid in male Wistar rat administered with the parent compound at 100 mg/kg, po; assay type: ADME, organism-based; set-up: dose 100 mg/kg, route oral; conditions: in vivo
[17] = system: Rattus norvegicus; assay: Volume of distribution of the metabolite 13-hydroxy-2,2,12,12-tetramethyl-7-oxotridecanoic acid in male Wistar rat administered with the parent compound at 100 mg/kg, po; assay type: ADME, organism-based; set-up: dose 100 mg/kg, route oral; conditions: in vivo
[18] = system: Rattus norvegicus; assay: Tmax of the metabolite 2,2,12,12-tetramethyl-7-oxotridecanedioic acid in male Wistar rat administered with the parent compound at 100 mg/kg, po; assay type: ADME, organism-based; set-up: dose 100 mg/kg, route oral; conditions: in vivo
[19] = system: Rattus norvegicus; assay: AUC of the metabolite 13-hydroxy-2,2,12,12-tetramethyl-7-oxotridecanoic acid in male Wistar rat administered with the parent compound at 100 mg/kg, po; assay type: ADME, organism-based, Plasma; set-up: dose 100 mg/kg, route oral; conditions: in vivo
[20] = system: Rattus norvegicus; assay: AUC of the metabolite 2,2,12,12-tetramethyl-7-oxotridecanedioic acid in male Wistar rat administered with the parent compound at 100 mg/kg, po; assay type: ADME, organism-based, Plasma; set-up: dose 100 mg/kg, route oral; conditions: in vivo
[21] = system: Rattus norvegicus; assay: Half life of the metabolite 2,2,12,12-tetramethyl-7-oxotridecanedioic acid in male Wistar rat administered with the parent compound at 100 mg/kg, po; assay type: ADME, organism-based; set-up: dose 100 mg/kg, route oral; conditions: in vivo
[22] = system: Rattus norvegicus; assay: Clearance of the metabolite 13-hydroxy-2,2,12,12-tetramethyl-7-oxotridecanoic acid in male Wistar rat administered with the parent compound at 100 mg/kg, po; assay type: ADME, organism-based; set-up: dose 100 mg/kg, route oral; conditions: in vivo
[23] = system: Rattus norvegicus; assay: Cmax of the metabolite 7-hydroxy-2,2,12,12-tetramethyltridecanedioic acid in male Wistar rat administered with the parent compound at 100 mg/kg, po; assay type: ADME, organism-based; set-up: dose 100 mg/kg, route oral; conditions: in vivo
[24] = system: Rattus norvegicus; assay: AUC (infinity) of the metabolite 7,13-dihydroxy-2,2,12,12-tetramethyltridecanoic acid in male Wistar rat administered with the parent compound at 100 mg/kg, po; assay type: ADME, organism-based, Plasma; set-up: time infinity, dose 100 mg/kg, route oral; conditions: in vivo
[25] = system: Rattus norvegicus; assay: Tolerability of compound upto 2000 mg/kg; assay type: organism-based; set-up: dose 2000 mg/kg; conditions: in vivo
[26] = system: Rattus norvegicus; assay: Volume of distribution of the metabolite 7,13-dihydroxy-2,2,12,12-tetramethyltridecanoic acid in male Wistar rat administered with the parent compound at 100 mg/kg, po; assay type: ADME, organism-based; set-up: dose 100 mg/kg, route oral; conditions: in vivo
[27] = system: Rattus norvegicus; assay: Clearance of the metabolite 2,2,12,12-tetramethyl-7-oxotridecanedioic acid in male Wistar rat administered with the parent compound at 100 mg/kg, po; assay type: ADME, organism-based; set-up: dose 100 mg/kg, route oral; conditions: in vivo
[28] = system: Rattus norvegicus; assay: AUC of the metabolite 7,13-dihydroxy-2,2,12,12-tetramethyltridecanoic acid in male Wistar rat administered with the parent compound at 100 mg/kg, po; assay type: ADME, organism-based, Plasma; set-up: dose 100 mg/kg, route oral; conditions: in vivo
[29] = system: Rattus norvegicus; assay: Half life of the metabolite 13-hydroxy-2,2,12,12-tetramethyl-7-oxotridecanoic acid in male Wistar rat administered with the parent compound at 100 mg/kg, po; assay type: ADME, organism-based; set-up: dose 100 mg/kg, route oral; conditions: in vivo
[30] = system: Rattus norvegicus; assay: Cmax of the metabolite 7,13-dihydroxy-2,2,12,12-tetramethyltridecanoic acid in male Wistar rat administered with the parent compound at 100 mg/kg, po; assay type: ADME, organism-based; set-up: dose 100 mg/kg, route oral; conditions: in vivo
[31] = system: Rattus norvegicus; assay: Volume of distribution of the metabolite 2,2,12,12-tetramethyl-7-oxotridecanedioic acid in male Wistar rat administered with the parent compound at 100 mg/kg, po; assay type: ADME, organism-based; set-up: dose 100 mg/kg, route oral; conditions: in vivo
[32] = system: Rattus norvegicus; assay: AUC (infinity) of the metabolite 7-hydroxy-2,2,12,12-tetramethyltridecanedioic acid in male Wistar rat administered with the parent compound at 100 mg/kg, po; assay type: ADME, organism-based, Plasma; set-up: time infinity, dose 100 mg/kg, route oral; conditions: in vivo
[33] = system: Rattus norvegicus; assay: Half life of the metabolite 7-hydroxy-2,2,12,12-tetramethyltridecanedioic acid in male Wistar rat administered with the parent compound at 100 mg/kg, po; assay type: ADME, organism-based; set-up: dose 100 mg/kg, route oral; conditions: in vivo
[34] = system: Rattus norvegicus; assay: Volume of distribution of the metabolite 7-hydroxy-2,2,12,12-tetramethyltridecanedioic acid in male Wistar rat administered with the parent compound at 100 mg/kg, po; assay type: ADME, organism-based; set-up: dose 100 mg/kg, route oral; conditions: in vivo
[35] = system: Rattus norvegicus; assay: Half life of the metabolite 7,13-dihydroxy-2,2,12,12-tetramethyltridecanoic acid in male Wistar rat administered with the parent compound at 100 mg/kg, po; assay type: ADME, organism-based; set-up: dose 100 mg/kg, route oral; conditions: in vivo
[36] = system: Rattus norvegicus; assay: Clearance of the metabolite 7,13-dihydroxy-2,2,12,12-tetramethyltridecanoic acid in male Wistar rat administered with the parent compound at 100 mg/kg, po; assay type: ADME, organism-based; set-up: dose 100 mg/kg, route oral; conditions: in vivo
[37] = system: Rattus norvegicus; assay: AUC of the metabolite 7-hydroxy-2,2,12,12-tetramethyltridecanedioic acid in male Wistar rat administered with the parent compound at 100 mg/kg, po; assay type: ADME, organism-based, Plasma; set-up: dose 100 mg/kg, route oral; conditions: in vivo
[38] = system: Rattus norvegicus; assay: AUC (infinity) of the metabolite 13-hydroxy-2,2,12,12-tetramethyl-7-oxotridecanoic acid in male Wistar rat administered with the parent compound at 100 mg/kg, po; assay type: ADME, organism-based, Plasma; set-up: time infinity, dose 100 mg/kg, route oral; conditions: in vivo
[39] = system: Rattus norvegicus; assay: Tmax of the metabolite 7,13-dihydroxy-2,2,12,12-tetramethyltridecanoic acid in male Wistar rat administered with the parent compound at 100 mg/kg, po; assay type: ADME, organism-based; set-up: dose 100 mg/kg, route oral; conditions: in vivo
[40] = system: Rattus norvegicus; assay: Cmax of the metabolite 13-hydroxy-2,2,12,12-tetramethyl-7-oxotridecanoic acid in male Wistar rat administered with the parent compound at 100 mg/kg, po; assay type: ADME, organism-based; set-up: dose 100 mg/kg, route oral; conditions: in vivo
[41] = system: Rattus norvegicus; assay: Tmax of the metabolite 7-hydroxy-2,2,12,12-tetramethyltridecanedioic acid in male Wistar rat administered with the parent compound at 100 mg/kg, po; assay type: ADME, organism-based; set-up: dose 100 mg/kg, route oral; conditions: in vivo
[42] = system: Rattus norvegicus; assay: Tmax of the metabolite 13-hydroxy-2,2,12,12-tetramethyl-7-oxotridecanoic acid in male Wistar rat administered with the parent compound at 100 mg/kg, po; assay type: ADME, organism-based; set-up: dose 100 mg/kg, route oral; conditions: in vivo
[43] = system: Rattus norvegicus; assay: AUC (infinity) of the metabolite 2,2,12,12-tetramethyl-7-oxotridecanedioic acid in male Wistar rat administered with the parent compound at 100 mg/kg, po; assay type: ADME, organism-based, Plasma; set-up: time infinity, dose 100 mg/kg, route oral; conditions: in vivo
[44] = system: Rattus norvegicus; assay: Tolerability of compound upto 5000 mg/kg; assay type: ADME, organism-based; set-up: dose 5000 mg/kg; conditions: in vivo

Vdss [1]: 2.0721 L/kg | Tmax [2]: 6 h | Cmax [4]: 40600 ng/mL | AUC(0-inf) [8]: 1180 µg·h/mL | half-life [9]: 16.9 h | AUC [12]: 703 µg·h/mL | CL/F [13]: 0.473 mL/min
Structure (SMILES): CC(C)(CCCCC(O)CCCCC(C)(C)C(=O)O)C(=O)O
Activity [3]: -6% | Activity [5]: -41% | Activity [6]: 57% | pIC50 [7]: 5.33 | Activity [10]: -59% | Activity [11]: -32% | Activity [14]: 50%

CL [15]: 28.4 mL/h | Cmax [16]: 14900 ng/mL | Vdss [17]: 13.6709 L/kg | Tmax [18]: 6 h | AUC [19]: 26.7 µg·h/mL | AUC [20]: 230.3 µg·h/mL | T1/2 [21]: 13.5 h | CL [22]: 747.9 mL/h | Cmax [23]: 40600 ng/mL | AUC [24]: 291.6 µg·h/mL | Vdss [26]: 1.5332 L/kg | CL [27]: 86.8 mL/h | AUC [28]: 289.9 µg·h/mL | T1/2 [29]: 2.5 h | Cmax [30]: 21400 ng/mL | Vdss [31]: 5.6319 L/kg | AUC [32]: 1176.1 µg·h/mL | T1/2 [33]: 16.9 h | Vdss [34]: 2.0721 L/kg | T1/2 [35]: 3.1 h | CL [36]: 69 mL/h | AUC [37]: 703.3 µg·h/mL | AUC [38]: 26.8 µg·h/mL | Tmax [39]: 6 h | Cmax [40]: 2000 ng/mL | Tmax [41]: 6 h | Tmax [42]: 0.5 h | AUC [43]: 344.9 µg·h/mL
Structure (SMILES): CC(C)(CO)CCCCC(=O)CCCCC(C)(C)CO
Activity [3]: -23% | Activity [25]: Active | Activity [5]: -10% | Activity [6]: 111% | pIC50 [7]: 5.82 | Activity [10]: -29% | Activity [11]: -54% | Activity [14]: 126%

Structure (SMILES): CC(C)(CO)CCCCSCCCCC(C)(C)CO
Activity [3]: -11% | Activity [5]: 9% | Activity [6]: 141% | pIC50 [7]: 4.74 | Activity [10]: -56% | Activity [11]: -37% | Activity [44]: Active | Activity [14]: 153%
